Earlier results, collected in paper PMC8875074, “Development of Bactericidal Peptides against Multidrug-Resistant Acinetobacter baumannii with Enhanced Stability and Low Toxicity” (International Journal of Molecular Sciences, 2022).

Conditions: cited from earlier work
Source text: A pair of test peptides, TP2-5 and TP2-6, were selected from a previous design based on tilapia piscidin 2 (TP2). […] Both TP2-5 and TP2-6 are nonhaemolytic and noncytotoxic an ...

GECIWDAIFHGAKHFLHRLVNP [TP2, tilapia piscidin 2]
antimicrobial activity: without antimicrobial activity | net positive charge: negligible or no net positive charge
